Data: US9421209B2, “Kinase modulators” (Rhizen Pharmaceuticals SA, priority 2009, dated 2016)
Where two headings read alike, the source gives them in different places.

How the values were obtained:
[1] = target: P110β (Homo sapiens, UniProt P42338); assay: Fluorescent (HTRF) determination of PI3K enzyme activity, β isoform; format: biochemical
Text: (§1) Assay 1: Fluorescent determination of PI3Kinase Kinase enzyme activity
(§2) Phosphoinositide 3 kinases (PI3K) belong to a class of lipid kinases that play a critical role in the regulation of several key cellular processes. The PI3K are capable of phosphorylating the 3-hydroxy position of phosphoinositols thereby generating second messengers involved in downstream signalling events. The homogenous time resolved fluorescence (HTRF) assay allows detection of 3,4,5-triphosphate (PIP3) formed as a result of phosphorylation of phosphotidylinositol 4,5-biphosphate (PIP2) by PI3K isoforms such as α, β, γ or δ.
(§3) PI3K isoform activity for α, β, γ or δ was determined using a PI3K human HTRF™ Assay Kit (Millipore, Billerica, Mass.) with modifications. All incubations were carried out at room temperature. Briefly, 0.5 μl of 40× inhibitor (in 100% DMSO) or 100% DMSO were added to each well of a 384-well black plate (Greiner Bio-One, Monroe, N.C.) containing 14.5 μl 1× reaction buffer/PIP2 (10 mM MgCl2, 5 mM DTT, 1.38 μM PIP2) mix with or without enzyme and incubated for 10 min. After the initial incubation, 5 μl/well of 400 μM ATP was added and incubated for an additional 30 minutes. Reaction was terminated by adding 5 μl/well stop solution (Millipore, Billerica, Mass.). Five microliters of detection mix (Millipore, Billerica, Mass.) were then added to each well and was incubated for 6-18 h in the dark. HRTF ratio was measured on a microplate reader (BMG Labtech., Germany) at an excitation wavelength of 337 nm and emission wavelengths of 665 and 620 nm with an integration time of […]. Data were analyzed using Graphpad Prism (Graphpad software; San Diego Calif.) for IC50 determination. Percent inhibition was calculated based on the values for the blank and enzyme controls. The results are provided below in Table 2 & 3.

[2] = target: P110 δ/Pi3K δ (Homo sapiens, UniProt O00329); assay: Fluorescent (HTRF) determination of PI3K enzyme activity, δ isoform; format: biochemical; parameters: inhibition: dose or concentration left out as unconfirmed
Outline: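 IC50 fitted from percent inhibition relative to blank and enzyme-only wells. Human PI3Kδ converts PIP2 to PIP3 after addition of 400 μM ATP solution, 30 min at room temperature. Product read by time-resolved FRET after stop and 6–18 h dark incubation with detection reagents.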

[3] = target: P110α (Homo sapiens, UniProt P42336); assay: Fluorescent (HTRF) determination of PI3K enzyme activity, α isoform; format: biochemical
Text: as §1, §2, §3

[4] = target: P110γ (Homo sapiens, UniProt P48736); assay: Fluorescent (HTRF) determination of PI3K enzyme activity, γ isoform; format: biochemical
Text: as §1, §2, §3

[5] = read-out: P110 δ/Pi3K δ IC 50 nM
[6] = read-out: P110 δ/ Pi3K δ IC 50 nM

Chain of P110 δ/Pi3K δ (O00329 whole entry, canonical isoform): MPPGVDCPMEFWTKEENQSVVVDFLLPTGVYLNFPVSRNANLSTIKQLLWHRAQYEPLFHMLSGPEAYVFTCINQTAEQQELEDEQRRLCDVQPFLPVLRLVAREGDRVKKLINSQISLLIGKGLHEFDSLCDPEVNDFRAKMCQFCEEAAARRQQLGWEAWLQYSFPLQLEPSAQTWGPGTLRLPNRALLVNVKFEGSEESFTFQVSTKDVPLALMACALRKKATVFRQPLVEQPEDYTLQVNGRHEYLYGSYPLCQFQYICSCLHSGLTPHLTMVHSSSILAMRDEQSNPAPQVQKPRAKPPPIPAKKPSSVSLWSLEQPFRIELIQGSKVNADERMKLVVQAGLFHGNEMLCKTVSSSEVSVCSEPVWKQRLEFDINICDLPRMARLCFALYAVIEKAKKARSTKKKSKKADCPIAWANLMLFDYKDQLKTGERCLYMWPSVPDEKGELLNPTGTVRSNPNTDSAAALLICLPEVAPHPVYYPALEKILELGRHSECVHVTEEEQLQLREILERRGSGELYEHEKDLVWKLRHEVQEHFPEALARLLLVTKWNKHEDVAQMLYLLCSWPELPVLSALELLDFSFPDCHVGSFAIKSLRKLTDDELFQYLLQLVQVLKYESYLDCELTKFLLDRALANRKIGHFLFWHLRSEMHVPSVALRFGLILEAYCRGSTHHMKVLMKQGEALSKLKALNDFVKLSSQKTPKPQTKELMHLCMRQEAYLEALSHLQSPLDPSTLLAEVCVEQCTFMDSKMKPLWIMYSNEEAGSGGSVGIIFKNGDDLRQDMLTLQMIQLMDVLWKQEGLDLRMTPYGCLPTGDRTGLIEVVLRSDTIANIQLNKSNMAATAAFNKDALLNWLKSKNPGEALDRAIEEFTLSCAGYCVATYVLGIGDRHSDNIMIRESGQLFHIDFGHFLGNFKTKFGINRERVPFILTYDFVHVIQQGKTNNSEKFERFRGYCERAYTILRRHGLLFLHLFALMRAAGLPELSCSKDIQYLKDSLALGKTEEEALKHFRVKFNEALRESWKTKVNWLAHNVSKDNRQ
Chain of P110 δ/Pi3K δ (P27986 whole entry partner, canonical isoform): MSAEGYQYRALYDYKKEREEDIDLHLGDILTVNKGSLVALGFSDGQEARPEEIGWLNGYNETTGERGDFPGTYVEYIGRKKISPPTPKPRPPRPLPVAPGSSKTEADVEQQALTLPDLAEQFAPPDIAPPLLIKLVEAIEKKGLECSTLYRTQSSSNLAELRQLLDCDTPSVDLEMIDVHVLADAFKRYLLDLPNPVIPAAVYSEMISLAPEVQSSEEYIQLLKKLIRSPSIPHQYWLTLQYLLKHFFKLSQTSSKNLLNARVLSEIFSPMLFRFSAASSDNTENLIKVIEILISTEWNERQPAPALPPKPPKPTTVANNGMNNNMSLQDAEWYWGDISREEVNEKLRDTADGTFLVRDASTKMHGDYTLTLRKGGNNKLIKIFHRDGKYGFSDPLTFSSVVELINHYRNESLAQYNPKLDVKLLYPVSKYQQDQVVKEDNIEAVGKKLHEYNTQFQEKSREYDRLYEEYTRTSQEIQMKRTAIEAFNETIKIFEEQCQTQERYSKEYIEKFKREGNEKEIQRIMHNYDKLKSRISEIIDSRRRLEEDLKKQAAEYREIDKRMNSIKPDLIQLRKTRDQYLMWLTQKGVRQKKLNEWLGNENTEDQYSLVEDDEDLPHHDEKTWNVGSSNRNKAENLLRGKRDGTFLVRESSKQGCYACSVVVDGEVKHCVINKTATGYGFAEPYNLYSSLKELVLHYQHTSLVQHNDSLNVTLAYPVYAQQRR
Chain of P110α (P42336 whole entry, canonical isoform): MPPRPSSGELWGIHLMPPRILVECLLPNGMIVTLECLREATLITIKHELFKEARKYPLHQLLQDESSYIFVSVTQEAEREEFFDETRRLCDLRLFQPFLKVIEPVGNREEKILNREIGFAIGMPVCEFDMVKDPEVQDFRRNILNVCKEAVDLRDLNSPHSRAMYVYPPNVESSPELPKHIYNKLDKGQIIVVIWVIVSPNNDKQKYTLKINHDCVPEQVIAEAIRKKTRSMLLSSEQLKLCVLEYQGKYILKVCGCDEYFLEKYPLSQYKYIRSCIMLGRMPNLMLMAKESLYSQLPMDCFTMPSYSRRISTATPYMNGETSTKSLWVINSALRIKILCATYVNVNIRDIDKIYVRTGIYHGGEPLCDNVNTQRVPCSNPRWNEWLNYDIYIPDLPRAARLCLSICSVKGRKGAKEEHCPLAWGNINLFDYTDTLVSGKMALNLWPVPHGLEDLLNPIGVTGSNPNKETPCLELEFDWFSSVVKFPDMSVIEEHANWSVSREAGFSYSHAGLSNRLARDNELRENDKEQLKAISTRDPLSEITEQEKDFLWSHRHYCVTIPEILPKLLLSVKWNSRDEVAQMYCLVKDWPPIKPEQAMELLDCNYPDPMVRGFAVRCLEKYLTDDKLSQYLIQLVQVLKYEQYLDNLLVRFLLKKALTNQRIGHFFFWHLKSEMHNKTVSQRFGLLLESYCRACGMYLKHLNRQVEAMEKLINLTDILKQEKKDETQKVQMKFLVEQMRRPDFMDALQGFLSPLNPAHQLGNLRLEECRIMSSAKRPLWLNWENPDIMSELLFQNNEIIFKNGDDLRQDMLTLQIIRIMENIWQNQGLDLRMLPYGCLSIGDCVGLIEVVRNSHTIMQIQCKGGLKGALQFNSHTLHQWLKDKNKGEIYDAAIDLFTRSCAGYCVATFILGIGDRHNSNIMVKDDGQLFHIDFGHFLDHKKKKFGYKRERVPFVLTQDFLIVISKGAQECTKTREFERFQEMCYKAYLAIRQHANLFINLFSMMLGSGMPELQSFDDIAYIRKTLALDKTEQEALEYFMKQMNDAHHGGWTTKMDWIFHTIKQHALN
Chain of P110α (P27986 whole entry partner, canonical isoform): as the sequence (P27986 whole entry partner, canonical isoform) above
Chain of P110β (P42338 whole entry, canonical isoform): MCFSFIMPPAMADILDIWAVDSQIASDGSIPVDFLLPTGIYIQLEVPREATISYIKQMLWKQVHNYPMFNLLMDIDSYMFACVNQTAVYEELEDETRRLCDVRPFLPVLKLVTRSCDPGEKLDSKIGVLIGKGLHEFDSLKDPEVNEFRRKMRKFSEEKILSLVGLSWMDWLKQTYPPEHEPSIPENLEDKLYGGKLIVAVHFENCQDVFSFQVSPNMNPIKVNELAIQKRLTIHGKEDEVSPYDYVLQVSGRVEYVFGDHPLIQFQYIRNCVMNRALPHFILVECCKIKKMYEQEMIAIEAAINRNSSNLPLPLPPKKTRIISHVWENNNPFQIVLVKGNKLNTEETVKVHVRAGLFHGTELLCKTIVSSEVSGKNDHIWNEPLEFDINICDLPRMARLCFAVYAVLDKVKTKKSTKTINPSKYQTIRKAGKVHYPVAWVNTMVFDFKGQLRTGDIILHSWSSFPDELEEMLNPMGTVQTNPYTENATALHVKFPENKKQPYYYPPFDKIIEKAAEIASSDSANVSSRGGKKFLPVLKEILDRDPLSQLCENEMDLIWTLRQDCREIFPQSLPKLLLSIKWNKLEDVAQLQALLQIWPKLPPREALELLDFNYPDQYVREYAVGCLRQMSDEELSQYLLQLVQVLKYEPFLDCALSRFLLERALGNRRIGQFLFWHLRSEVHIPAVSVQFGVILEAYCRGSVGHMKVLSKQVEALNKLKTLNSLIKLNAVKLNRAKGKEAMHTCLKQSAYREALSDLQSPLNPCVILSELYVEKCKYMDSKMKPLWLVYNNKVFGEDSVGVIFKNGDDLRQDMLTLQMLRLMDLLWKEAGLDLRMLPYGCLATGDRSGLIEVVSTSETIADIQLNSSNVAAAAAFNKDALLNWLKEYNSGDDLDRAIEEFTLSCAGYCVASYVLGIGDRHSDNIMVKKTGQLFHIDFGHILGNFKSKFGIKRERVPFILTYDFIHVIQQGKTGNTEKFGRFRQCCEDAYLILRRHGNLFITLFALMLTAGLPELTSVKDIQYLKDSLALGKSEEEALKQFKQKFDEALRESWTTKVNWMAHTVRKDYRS
Chain of P110β (P27986 whole entry partner, canonical isoform): as the sequence (P27986 whole entry partner, canonical isoform) above
Chain of P110γ (P48736 whole entry, canonical isoform): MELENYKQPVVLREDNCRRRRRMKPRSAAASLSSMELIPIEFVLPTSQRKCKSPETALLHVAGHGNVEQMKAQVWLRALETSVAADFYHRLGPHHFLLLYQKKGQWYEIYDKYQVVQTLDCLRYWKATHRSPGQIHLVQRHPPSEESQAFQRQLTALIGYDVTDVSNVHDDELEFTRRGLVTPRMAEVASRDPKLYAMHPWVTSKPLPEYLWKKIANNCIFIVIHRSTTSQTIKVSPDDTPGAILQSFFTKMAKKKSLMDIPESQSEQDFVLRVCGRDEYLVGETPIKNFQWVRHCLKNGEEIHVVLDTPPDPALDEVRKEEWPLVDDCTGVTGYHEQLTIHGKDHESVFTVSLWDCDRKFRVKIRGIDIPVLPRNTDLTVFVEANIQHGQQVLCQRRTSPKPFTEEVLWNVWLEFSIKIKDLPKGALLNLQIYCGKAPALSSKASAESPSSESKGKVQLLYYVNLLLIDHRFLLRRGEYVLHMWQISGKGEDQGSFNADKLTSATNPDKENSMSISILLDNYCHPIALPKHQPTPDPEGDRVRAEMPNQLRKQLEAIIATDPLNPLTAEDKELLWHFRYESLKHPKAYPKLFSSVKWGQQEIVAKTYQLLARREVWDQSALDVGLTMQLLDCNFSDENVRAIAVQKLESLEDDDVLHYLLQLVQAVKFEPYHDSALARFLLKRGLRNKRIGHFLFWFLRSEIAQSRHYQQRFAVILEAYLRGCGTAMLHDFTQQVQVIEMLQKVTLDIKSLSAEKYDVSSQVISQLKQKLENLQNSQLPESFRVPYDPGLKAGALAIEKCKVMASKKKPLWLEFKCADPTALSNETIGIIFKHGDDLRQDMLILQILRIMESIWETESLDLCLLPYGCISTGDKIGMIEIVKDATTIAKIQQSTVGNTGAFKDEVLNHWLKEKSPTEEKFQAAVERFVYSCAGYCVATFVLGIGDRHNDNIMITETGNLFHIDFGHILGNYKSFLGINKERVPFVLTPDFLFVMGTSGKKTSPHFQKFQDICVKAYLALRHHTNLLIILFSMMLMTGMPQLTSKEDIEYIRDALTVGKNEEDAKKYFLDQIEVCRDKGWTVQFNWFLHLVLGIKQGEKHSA

Compound `Nc1ncnc2c1ncn2Cc1oc2ccc(Br)cc2c(=O)c1-c1ccccc1` [Example 1, 2-[(6-Amino-9H-purin-9-yl)methyl]-6-bromo-3-phenyl-4H-chromen-4-one] has an inhibition at 1 µM [1] of less than 25%, an inhibition at 1 µM [2] of less than 50% and an IC50 [2, 5] of less than 250 nM. It also gave an inhibition at 1 µM [3] of less than 25% and a melting point of 207 to 209 °C.
With `O=c1c(-c2ccccc2)c(Cn2cnc3c(Cl)ncnc32)oc2ccc(Br)cc12` [Example 10, 6-Bromo-2-[(6-chloro-9H-purin-9-yl)methyl]-3-phenyl-4H-chromen-4-one] the inhibition at 1 µM [1] was less than 25%, the inhibition at 1 µM [3] was less than 25% and the melting point was 234 to 236 °C.
In the case of `CC(c1oc2ccccc2c(=O)c1-c1ccccc1)n1cnc2c(N)ncnc21` (centres unmarked) [Example 23, 2-(1-(6-Amino-9H-purin-9-yl)ethyl)-3-phenyl-4H-chromen-4-one], the inhibition at 1 µM [1] was less than 25%, the inhibition at 1 µM [2] was 50 to 100% and the IC50 [2, 5] was less than 250 nM. For the same compound, the inhibition at 1 µM [3] was less than 25% and the melting point was 254 to 257 °C.
Work on `C[C@H](Nc1ncnc2[nH]cnc12)c1oc2ccc(F)cc2c(=O)c1-c1ccccc1` [Example 57, (S)-2-(1-(9H-purin-6-ylamino)ethyl)-6-fluoro-3-phenyl-4H-chromen-4-one] yielded an inhibition at 1 µM [1] of 25 to 50%, an inhibition at 1 µM [2] of 50 to 100% and an IC50 [2, 5] of less than 250 nM. The inhibition at 1 µM [3] was less than 25% and the melting point was 196 to 198 °C.
Compound `C[C@H](Nc1ncnc2[nH]cnc12)c1oc2ccc(F)cc2c(=O)c1-c1cccc(F)c1` [Example 74, (S)-2-(1-(9H-purin-6-ylamino)ethyl)-6-fluoro-3-(3-fluorophenyl)-4H-chromen-4-one] has an inhibition at 1 µM [1] of 25 to 50%, an inhibition at 1 µM [2] of 50 to 100% and an IC50 [2, 5] of less than 250 nM. The melting point was 203 to 206 °C and the inhibition at 1 µM [4] was 25 to 50%.
In the case of `COc1ccc(-c2nn(C(C)c3oc4ccccc4c(=O)c3-c3cccc(F)c3)c3ncnc(N)c23)cc1F` (centres unmarked) [Example 84, 2-(1-(4-amino-3-(3-fluoro-4-methoxyphenyl)-1H-pyrazolo[3,4-d]pyrimidin-1-yl)ethyl)-3-(3-fluorophenyl)-4H-chromen-4-one], the inhibition at 1 µM [1] was less than 25%, the inhibition [2] was 50 to 100% and the IC50 [2, 6] was less than 250 nM. The inhibition at 1 µM [3] was less than 25% and the melting point was 222 to 224 °C.
Work on `CC(c1oc2ccccc2c(=O)c1-c1cccc(F)c1)n1nc(-c2ccc(O)c(F)c2)c2c(N)ncnc21` (centres unmarked) [Example 85, 2-(1-(4-amino-3-(3-fluoro-4-hydroxyphenyl)-1H-pyrazolo[3,4-d]pyrimidin-1-yl)ethyl)-3-(3-fluorophenyl)-4H-chromen-4-one] yielded an inhibition at 1 µM [1] of 25 to 50%, an inhibition [2] of 50 to 100% and an inhibition at 1 µM [3] of 25 to 50%. It also gave a melting point of 244 to 247 °C.
`Cc1n[nH]c2cc(-c3nn(C(C)c4oc5ccc(F)cc5c(=O)c4-c4ccccc4)c4ncnc(N)c34)ccc12` (centres unmarked) [Example 105, 2-(1-(4-amino-3-(3-methyl-1H-indazol-6-yl)-1H-pyrazolo[3,4-d]pyrimidin-1-yl)ethyl)-6-fluoro-3-phenyl-4H-chromen-4-one] showed an inhibition at 1 µM [1] of 50 to 100%, an inhibition [2] of 50 to 100% and an IC50 [2, 6] of less than 250 nM. For the same compound, the melting point was 253 to 255 °C and the inhibition at 1 µM [4] was 50 to 100%.
`COc1ncc(-c2nn(C(C)c3oc4ccccc4c(=O)c3-c3cccc(F)c3)c3ncnc(N)c23)cn1` (centres unmarked) [Example 112, 2-(1-(4-amino-3-(2-methoxypyrimidin-5-yl)-1H-pyrazolo[3,4-d]pyrimidin-1-yl)ethyl)-3-(3-fluorophenyl)-4H-chromen-4-one] showed an inhibition at 1 µM [1] of less than 25%, an inhibition [2] of less than 50% and an inhibition at 1 µM [3] of less than 25%. For the same compound, the melting point was 224 to 227 °C.
`Cc1nc2cc(-c3nn(C(C)c4oc5ccccc5c(=O)c4-c4cccc(F)c4)c4ncnc(N)c34)ccc2[nH]1` (centres unmarked) [Example 115, 2-(1-(4-amino-3-(2-methyl-1H-benzo[d]imidazol-5-yl)-1H-pyrazolo[3,4-d]pyrimidin-1-yl)ethyl)-3-(3-fluorophenyl)-4H-chromen-4-one] showed an inhibition at 1 µM [1] of less than 25%, an inhibition [2] of 50 to 100% and an IC50 [2, 6] of less than 250 nM. The inhibition at 1 µM [3] was less than 25% and the melting point was 154 to 156 °C.
`CCC(c1oc2ccccc2c(=O)c1-c1cccc(F)c1)n1nc(-c2ccc3c(C)n[nH]c3c2)c2c(N)ncnc21` (centres unmarked) [Example 116, 2-(1-(4-amino-3-(3-methyl-1H-indazol-6-yl)-1H-pyrazolo[3,4-d]pyrimidin-1-yl)propyl)-3-(3-fluorophenyl)-4H-chromen-4-one] showed an inhibition at 1 µM [1] of less than 25%, an inhibition [2] of 50 to 100% and an inhibition at 1 µM [3] of less than 25%. For the same compound, the melting point was 268 to 270 °C.
`Nc1ncnc2c1ncn2Cc1oc2ccc(F)cc2c(=O)c1-c1ccccc1` [Example 118, 2-((6-amino-9H-purin-9-yl)methyl)-6-fluoro-3-phenyl-4H-chromen-4-one] showed an inhibition at 1 µM [1] of 25 to 50%, an inhibition [2] of less than 50% and an inhibition at 1 µM [3] of less than 25%. The melting point was 207 to 209 °C.
With `Nc1ncnc2c1ncn2Cc1oc2ccc(F)cc2c(=O)c1-c1cccc(F)c1` [Example 119, 2-((6-amino-9H-purin-9-yl)methyl)-6-fluoro-3-(3-fluorophenyl)-4H-chromen-4-one] the inhibition at 1 µM [1] was less than 25%, the inhibition [2] was less than 50% and the inhibition at 1 µM [3] was less than 25%. For the same compound, the melting point was 180 to 183 °C.
For `COc1cc(F)cc(-c2nn(Cc3oc4ccc(F)cc4c(=O)c3-c3cccc(F)c3)c3ncnc(N)c23)c1` [Example 120, 2-((4-amino-3-(3-fluoro-5-methoxyphenyl)-1H-pyrazolo[3,4-d]pyrimidin-1-yl)methyl)-6-fluoro-3-(3-fluorophenyl)-4H-chromen-4-one], the inhibition at 1 µM [1] was less than 25% and the inhibition at 1 µM [3] was less than 25%.
In the case of `C[C@@H](Nc1ncnc2[nH]cnc12)c1oc2ccc(F)cc2c(=O)c1-c1cccc(F)c1` [Example 124, (R)-2-(1-(9H-purin-6-ylamino)ethyl)-6-fluoro-3-(3-fluorophenyl)-4H-chromen-4-one], the inhibition at 1 µM [1] was less than 25%, the inhibition [2] was less than 50% and the inhibition at 1 µM [3] was less than 25%. For the same compound, the melting point was 194 to 197 °C.
`Nc1ncnc2c1c(-c1cn[nH]c1)nn2Cc1oc2ccc(F)cc2c(=O)c1-c1ccccc1` [Example 125, 2-((4-amino-3-(1H-pyrazol-4-yl)-1H-pyrazolo[3,4-d]pyrimidin-1-yl)methyl)-6-fluoro-3-phenyl-4H-chromen-4-one] showed an inhibition at 1 µM [1] of less than 25%, an inhibition [2] of less than 50% and an inhibition at 1 µM [3] of less than 25%. The melting point was 211 to 214 °C.
For `COc1cc(OC)cc(-c2nn(C(C)c3oc4ccccc4c(=O)c3-c3cccc(F)c3)c3ncnc(N)c23)c1` (centres unmarked) [Example 130, 2-(1-(4-amino-3-(3,5-dimethoxyphenyl)-1H-pyrazolo[3,4-d]pyrimidin-1-yl)ethyl)-3-(3-fluorophenyl)-4H-chromen-4-one], the inhibition at 1 µM [1] was less than 25%, the inhibition [2] was less than 50% and the inhibition at 1 µM [3] was less than 25%. The melting point was 224 to 227 °C.
In the case of `COc1c(C)cc(-c2nn(C(C)c3oc4ccccc4c(=O)c3-c3cccc(F)c3)c3ncnc(N)c23)cc1C` (centres unmarked) [Example 131, 2-(1-(4-amino-3-(4-methoxy-3,5-dimethylphenyl)-1H-pyrazolo[3,4-d]pyrimidin-1-yl)ethyl)-3-(3-fluorophenyl)-4H-chromen-4-one], the inhibition at 1 µM [1] was less than 25%, the inhibition [2] was less than 50% and the inhibition at 1 µM [3] was 25 to 50%. The melting point was 234 to 236 °C.
Compound `CC(c1oc2ccccc2c(=O)c1-c1cccc(F)c1)n1nc(-c2ccc3c(c2)OCCO3)c2c(N)ncnc21` (centres unmarked) [Example 133, 2-(1-(4-amino-3-(2,3-dihydrobenzo[b][1,4]dioxin-6-yl)-1H-pyrazolo[3,4-d]pyrimidin-1-yl)ethyl)-3-(3-fluorophenyl)-4H-chromen-4-one] has an inhibition at 1 µM [1] of 50 to 100%, an inhibition [2] of less than 50% and an inhibition at 1 µM [3] of less than 25%. It also gave a melting point of 225 to 226 °C.
In the case of `CC(c1oc2ccccc2c(=O)c1-c1cccc(F)c1)n1nc(-c2ccco2)c2c(N)ncnc21` (centres unmarked) [Example 155, 2-(1-(4-amino-3-(furan-2-yl)-1H-pyrazolo[3,4-d]pyrimidin-1-yl)ethyl)-3-(3-fluorophenyl)-4H-chromen-4-one], the inhibition at 1 µM [1] was less than 25%, the inhibition [2] was 50 to 100% and the melting point was 234 to 236 °C.
For `CCOc1ccc(-c2nn(C(C)c3oc4ccccc4c(=O)c3-c3cccc(F)c3)c3ncnc(N)c23)cc1` (centres unmarked) [Example 156, 2-(1-(4-amino-3-(4-ethoxyphenyl)-1H-pyrazolo[3,4-d]pyrimidin-1-yl)ethyl)-3-(3-fluorophenyl)-4H-chromen-4-one], the inhibition at 1 µM [1] was 25 to 50%, the inhibition [2] was less than 50% and the melting point was 229 to 232 °C.
